What was measured:
PanHDAC = PanHDAC activity at fixed concentration (Table 2); assay type: biochemical; parameters: unit not given here; conditions: compound at 1 uM
HDAC 6 = target: T1, HDAC 6 (Homo sapiens, UniProt Q9UBN7); assay: HDAC 6 activity at fixed concentration (Table 2); assay type: biochemical; parameters: unit not given here; conditions: compound at 50 nM
T1 sequence (Q9UBN7 1-1215): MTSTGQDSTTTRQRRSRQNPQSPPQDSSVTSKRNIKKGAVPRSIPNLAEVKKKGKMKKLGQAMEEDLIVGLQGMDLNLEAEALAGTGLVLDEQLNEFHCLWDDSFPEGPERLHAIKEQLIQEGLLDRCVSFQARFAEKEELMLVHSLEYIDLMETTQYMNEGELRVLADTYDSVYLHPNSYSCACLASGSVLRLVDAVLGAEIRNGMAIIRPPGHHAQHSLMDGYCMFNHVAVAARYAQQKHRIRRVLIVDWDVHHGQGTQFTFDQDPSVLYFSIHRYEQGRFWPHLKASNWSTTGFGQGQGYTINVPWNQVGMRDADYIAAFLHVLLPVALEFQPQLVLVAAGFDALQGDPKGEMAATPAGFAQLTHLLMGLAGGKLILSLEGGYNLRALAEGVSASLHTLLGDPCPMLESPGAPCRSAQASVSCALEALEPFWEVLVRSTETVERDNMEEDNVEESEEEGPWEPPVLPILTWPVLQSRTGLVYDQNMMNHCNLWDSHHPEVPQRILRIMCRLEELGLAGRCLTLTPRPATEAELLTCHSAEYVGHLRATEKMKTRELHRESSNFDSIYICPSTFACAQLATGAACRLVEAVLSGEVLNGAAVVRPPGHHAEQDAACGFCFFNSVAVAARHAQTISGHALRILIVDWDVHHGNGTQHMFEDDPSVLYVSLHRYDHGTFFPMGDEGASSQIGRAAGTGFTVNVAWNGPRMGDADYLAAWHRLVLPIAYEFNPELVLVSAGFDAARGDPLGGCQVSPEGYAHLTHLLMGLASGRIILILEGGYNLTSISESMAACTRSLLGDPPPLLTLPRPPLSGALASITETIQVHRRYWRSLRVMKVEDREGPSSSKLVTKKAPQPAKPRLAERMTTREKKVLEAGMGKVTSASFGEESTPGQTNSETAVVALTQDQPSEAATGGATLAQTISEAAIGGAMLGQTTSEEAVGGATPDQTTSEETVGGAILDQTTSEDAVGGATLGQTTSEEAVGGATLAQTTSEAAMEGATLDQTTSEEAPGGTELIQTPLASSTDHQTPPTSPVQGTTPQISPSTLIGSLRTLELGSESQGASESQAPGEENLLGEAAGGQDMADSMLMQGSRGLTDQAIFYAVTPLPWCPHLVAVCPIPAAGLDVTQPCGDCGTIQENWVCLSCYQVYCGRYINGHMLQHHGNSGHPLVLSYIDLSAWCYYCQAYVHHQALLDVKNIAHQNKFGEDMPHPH

melting point	HDAC 6 at 50 nM (HDAC 6)	SMILES	PanHDAC at 1 uM (PanHDAC)
200 to 203 °C	–	Cl.O=C(CN1CCC2(CCc3cc(F)ccc3O2)CC1)NO	–
182 to 188 °C	–	O=C(Nc1cccc2c1OC(C(=O)NO)CC2)OCc1ccccc1Cl (racemic) [Compound 11L, 2-Chlorobenzyl (2-(hydroxycarbamoyl)chroman-8-yl)carbamate]	–
156 to 160 °C	–	C[C@@H]1Cc2ccccc2O[C@@H]1C(=O)NO (relative stereo) [Compound 73, (rel)-(2S,3R)—N-Hydroxy-3-methylchromane-2-carboxamide]	–
102 to 104 °C	–	CO[C@@H]1C[C@@H](C(=O)NO)Oc2ccccc21 (relative stereo) [Compound 85, (rel)-(2S,4R)—N-Hydroxy-4-methoxychromane-2-carboxamide]	–
173 to 174 °C	–	O=C(NO)[C@@H]1CCc2ccc(-c3ccc(F)c(Cl)c3)cc2O1 [(S)-58d, (S)-7-(3-Chloro-4-fluorophenyl)-N-hydroxychromane-2-carboxamide]	–
134 to 136 °C	–	O=C(NO)[C@@H]1CCc2ccc(-c3ccc(Cl)c(Cl)c3)cc2O1 [(S)-58e, (S)-7-(3,4-Dichlorophenyl)-N-hydroxychromane-2-carboxamide]	–
173 to 175 °C	–	O=C(Nc1cccc2c1O[C@@H](C(=O)NO)CC2)OCc1ccccc1Cl [+11L, 2-Chlorobenzyl (R)-(2-(hydroxycarbamoyl)chroman-8-yl)carbamate]	–
–	31	O=C(NO)[C@H]1CCc2ccc(OCc3ccc(Cl)cc3)cc2O1 [Compound 1-58]	0
–	0	O=C(NO)[C@@H]1CCc2ccc(OCc3ccc(Cl)cc3)cc2O1 [Compound 1-59]	0
–	33	COc1cccc(COC(=O)Nc2cccc3c2O[C@H](C(=O)NO)CC3)c1 [Compound 1-60]	0
–	41	O=C(NO)[C@@H]1CCc2ccc(-c3ccc(Cl)c(Cl)c3)cc2O1 [Compound 1-61]	0
–	32	O=C(Nc1cccc2c1O[C@H](C(=O)NO)CC2)OCc1ccc(Cl)cc1 [Compound 1-62]	0
–	45	O=C(Nc1cccc2c1O[C@H](C(=O)NO)CC2)OCc1ccc(Cl)c(Cl)c1 [Compound 1-63]	0
–	47	O=C(NO)[C@@H]1CCc2ccc(-c3ccc(F)c(Cl)c3)cc2O1 [Compound 1-64]	3
–	17	O=C(NO)[C@@H]1CCc2ccc(OCc3ccccc3Cl)cc2O1 [Compound 1-65]	0
–	31	COc1ccccc1COC(=O)Nc1cccc2c1O[C@H](C(=O)NO)CC2 [Compound 1-66]	0
231 to 232 °C	–	O=C(Nc1ccc(F)cc1)Nc1cccc2c1OC(C(=O)NO)CC2 (stereo not shown) [Compound 11c, 8-(3-(4-Fluorophenyl)ureido)-N-hydroxychromane-2-carboxamide]	–
187 to 190 °C	–	O=C(NCc1ccccc1)Nc1cccc2c1OC(C(=O)NO)CC2 (stereo not shown) [Compound 11e, 8-(3-Benzylureido)-N-hydroxychromane-2-carboxamide]	–
102 to 104 °C	–	O=C(Nc1cccc2c1OC(C(=O)NO)CC2)OCc1ccc(C(F)(F)F)cc1 (stereo not shown) [Compound 11f, 4-(Trifluoromethyl)benzyl (2-(hydroxycarbamoyl)chroman-8-yl)carbamate]	–
71 to 73 °C	–	COc1cccc(COC(=O)Nc2cccc3c2O[C@H](C(=O)NO)CC3)c1 [Compound 11g, 3-methoxybenzyl (S)-(2-(hydroxycarbamoyl)chroman-8-yl)carbamate]	–

melting point	HDAC 6 at 50 nM (HDAC 6)	SMILES	PanHDAC at 1 uM (PanHDAC)
155 to 157 °C	–	O=C(Nc1cccc2c1O[C@H](C(=O)NO)CC2)OCc1ccc(Cl)cc1 [Compound 11h, 4-Chlorobenzyl (S)-(2-(hydroxycarbamoyl)chroman-8-yl)carbamate]	–
237 to 239 °C	–	O=C(NO)C1CCc2cccc(NS(=O)(=O)c3ccc(F)cc3)c2O1 (stereo not shown) [Compound 11m, 8-((4-Fluorophenyl)sulfonamido)-N-hydroxychromane-2-carboxamide]	–
219 to 221 °C	–	O=C(NO)C1CCc2cccc(NS(=O)(=O)c3cccc4ccccc34)c2O1 (stereo not shown) [Compound 11n, N-Hydroxy-8-(naphthalene-1-sulfonamido)chromane-2-carboxamide]	–
181 to 183 °C	–	CS(=O)(=O)Nc1cccc2c1OC(C(=O)NO)CC2 (stereo not shown) [Compound 11o, N-Hydroxy-8-(methylsulfonamido)chromane-2-carboxamide]	–
235 to 237 °C	–	Cc1ccc(S(=O)(=O)Nc2cccc3c2OC(C(=O)NO)CC3)cc1 (stereo not shown) [Compound 11p, N-Hydroxy-8-((4-methylphenyl)sulfonamido)chromane-2-carboxamide]	–
214 to 216 °C	–	O=C(Nc1ccc2c(c1)CCC(C(=O)NO)O2)c1ccc(S(F)(F)(F)(F)F)cc1 (stereo not shown) [Compound 14c, N-Hydroxy-6-(4-(pentafluoro-λ^6-sulfaneyl)benzamido)chromane-2-carboxamide]	–
195 to 197 °C	–	O=C(NCc1ccc(Cl)c(C(F)(F)F)c1)Nc1cccc2c1OC(C(=O)NO)CC2 (stereo not shown) [Compound 14i, 8-(3-(4-Chloro-3-(trifluoromethyl)benzyl)ureido)-N-hydroxychromane-2-carboxamide]	–
149 to 151 °C	–	COc1ccc(COC(=O)Nc2ccc3c(c2)CCC(C(=O)NO)O3)cc1 (stereo not shown) [Compound 14j, 4-Methoxybenzyl (2-(hydroxycarbamoyl)chroman-6-yl)carbamate]	–
188 to 189 °C	–	O=C(Nc1ccc2c(c1)CCC(C(=O)NO)O2)OCc1ccccc1Cl (stereo not shown) [Compound 14k, 2-Chlorobenzyl (2-(hydroxycarbamoyl)chroman-6-yl)carbamate]	–
156 to 170 °C	–	O=C(NO)C1CCc2cc(NS(=O)(=O)c3cc(Cl)cc(Cl)c3)ccc2O1 (stereo not shown) [Compound 14n, 6-((3,5-Dichlorophenyl)sulfonamido)-N-hydroxychromane-2-carboxamide]	–
200 °C (dec.)	–	CC(C)NC(=O)ONC(=O)C1CCc2cc(NC(=O)c3ccc(-c4ccccc4)cc3)ccc2O1 (stereo not shown) [Compound 15, 6-([1,1′-Biphenyl]-4-carboxamido)-N-((isopropylcarbamoyl)oxy)chromane-2-carboxamide]	–
161 to 163 °C	–	C#Cc1ccc2c(c1)CCC(C(=O)NO)O2 (stereo not shown) [Compound 19, 6-ethynyl-N-hydroxychromane-2-carboxamide]	–
149 to 151 °C	–	O=C(NO)C1CCc2cc(C#CCOc3ccc(F)cc3)ccc2O1 (stereo not shown) [Compound 25, 6-(3-(4-Fluorophenoxy)prop-1-yn-1-yl)-N-hydroxychromane-2-carboxamide]	–
145 to 147 °C	–	O=C(NO)C1CCc2cc(CCCOc3ccc(F)cc3)ccc2O1 (stereo not shown) [Compound 31, 6-(3-(4-Fluorophenoxy)propyl)-N-hydroxychromane-2-carboxamide]	–
90 to 92 °C	–	O=C(NO)C1CCc2cc(C#CCOC(=O)N3CCc4ccccc4C3)ccc2O1 (stereo not shown) [Compound 36, 3-(2-(Hydroxycarbamoyl)chroman-6-yl)prop-2-yn-1-yl 3,4-dihydroisoquinoline-2(1H)-carboxylate]	–
82 to 84 °C	–	O=C(NO)C1CCc2cc(CCCOC(=O)N3CCc4ccccc4C3)ccc2O1 (stereo not shown) [Compound 40, 3-(2-(Hydroxycarbamoyl)chroman-6-yl)propyl 3,4-dihydroisoquinoline-2(1H)-carboxylate]	–
218 to 219 °C	–	O=C(NO)C1CCc2cc(-c3ccc(-c4ccccc4)cc3)ccc2O1 (stereo not shown) [Compound 44a, 6-([1,1′-Biphenyl]-4-yl)-N-hydroxychromane-2-carboxamide]	–
177 to 179 °C	–	O=C(NO)C1CCc2cc(-c3ccc(F)cc3)ccc2O1 (stereo not shown) [Compound 44b, 6-(4-Fluorophenyl)-N-hydroxychromane-2-carboxamide]	–
89 to 91 °C	–	O=C(NO)C1CCc2cc(-c3ccc(Cl)c(Cl)c3)ccc2O1 (stereo not shown) [Compound 44c, 6-(3,4-Dichlorophenyl)-N-hydroxychromane-2-carboxamide]	–
148 to 151 °C	–	O=C(NO)C1CCc2ccc(OCc3ccc(C(F)(F)F)cc3)cc2O1 (stereo not shown) [Compound 50a, N-Hydroxy-7-((4-(trifluoromethyl)benzyl)oxy)chromane-2-carboxamide]	–
